Laboratory results reported in US8063028B2, “Heterocyclic antiviral compounds” (Roche Palo Alto LLC, priority 2007, dated 2011).
Counter-ions that a name gives are not always drawn.

Target: HIV-1 RT (Human immunodeficiency virus type 1 group M subtype B, UniProt P04585)
Assay: HIV reverse transcriptase assay, inhibitor IC50 determination
Assay type: biochemical
Conditions: purified recombinant enzyme, poly(rA)/oligo(dT)16 template-primer, 37° C. 30 min
Method: Reactions were initiated by adding 4 nM HIV-1 RT and after incubation at 37° C. for 30 min, they were stopped by the addition of 50 μl ice cold 20% TCA and allowed to precipitate at 4° C. for 30 min. The precipitates were collected by applying vacuum to the plate and sequentially washing with 3×200 μl of 10% TCA and 2×200 μl 70% ethanol. Finally, the plates were dried and radioactivity counted in a Packard TopCounter after the addition of 25 μl scintillation fluid per well. IC50's were calculated by plotting % inhibition versus log10 inhibitor concentrations. Representative IC50 data is depicted in TABLE 2.
`N#Cc1cc(Cl)cc(Oc2c(Cl)ccc(Cc3nn(COC(=O)CCC(=O)O)c4nnccc34)c2F)c1` [Compound I-5, Succinic acid mono-{3-[4-chloro-3-(3-chloro-5-cyano-phenoxy)-2-fluoro-benzyl]-pyrazolo[3,4-c]pyridazin-1-ylmethyl}ester] gave an IC50 of 7.4 nM.
`N#Cc1cc(Cl)cc(Oc2c(Br)ccc(Cc3nn(COC(=O)CCC(=O)O)c4nnccc34)c2F)c1` [Compound I-3, Succinic acid mono-{3-[4-bromo-3-(3-chloro-5-cyano-phenoxy)-2-fluoro-benzyl]-pyrazolo[3,4-c]pyridazin-1-ylmethyl}ester] showed an IC50 of 4.9 nM.

System: not given
Assay: not given
Conditions: not given
`N#Cc1cc(C#N)cc(Oc2c(Br)ccc(Cc3nn(COC(=O)CCC(=O)O)c4nnccc34)c2F)c1` [Compound I-4, Succinic acid mono-{3-[4-bromo-3-(3,5-dicyano-phenoxy)-2-fluoro-benzyl]-pyrazolo[3,4-c]pyridazin-1-ylmethyl}ester] gave a melting point of 175.2 to 176.5 °C.
In the case of `N#Cc1cc(Cl)cc(Oc2c(Br)ccc(Cc3nn(COC(=O)CCCCC(=O)O)c4nnccc34)c2F)c1` [Compound I-15, Hexanedioic acid mono-{3-[4-bromo-3-(3-chloro-5-cyano-phenoxy)-2-fluoro-benzyl]-pyrazolo[3,4-c]pyridazin-1-ylmethyl}ester], the melting point is reported as 159 to 160 °C.
For `N#Cc1cc(Cl)cc(Oc2c(Br)ccc(Cc3nn(COC(=O)CCCC(=O)O)c4nnccc34)c2F)c1` [Compound I-7, Pentanedioic acid mono-{3-[4-bromo-3-(3-chloro-5-cyano-phenoxy)-2-fluoro-benzyl]-pyrazolo[3,4-c]pyridazin-1-ylmethyl}ester], the melting point was 149.8 to 150.7 °C.
With `N#Cc1cc(Cl)cc(Oc2c(Br)ccc(Cc3nn(COC(=O)CCC(=O)O)c4ncccc34)c2F)c1` [Compound I-1, Succinic acid mono-{3-[4-bromo-3-(3-chloro-5-cyano-phenoxy)-2-fluoro-benzyl]-pyrazolo[3,4-b]pyridin-1-ylmethyl}ester] the melting point was 183 to 184 °C.
Compound `CC(=O)OCn1nc(Cc2ccc(Br)c(Oc3cc(Cl)cc(C#N)c3)c2F)c2ccnnc21` [Compound I-8, Acetic acid 3-[4-bromo-3-(3-chloro-5-cyano-phenoxy)-2-fluoro-benzyl]-pyrazolo[3,4-c]pyridazin-1-ylmethyl ester] has a melting point of 71.1 to 73 °C.
Work on `CC(CN(C)C)OC(=O)n1nc(Cc2ccc(Br)c(Oc3cc(Cl)cc(C#N)c3)c2F)c2ccnnc21` (centres unmarked) (as salt: hydrochloride) [Compound I-13, 3-[4-Bromo-3-(3-chloro-5-cyano-phenoxy)-2-fluoro-benzyl]-pyrazolo[3,4-c]pyridazine-1-carboxylic acid 2-dimethylamino-1-methyl-ethyl ester] yielded a melting point of 119 to 122 °C.
Work on `N#Cc1cc(Cl)cc(Oc2c(Cl)ccc(Cc3nn(COC(=O)CCCC(=O)O)c4nnccc34)c2F)c1` [Compound I-14, Pentanedioic acid mono-{3-[4-chloro-3-(3-chloro-5-cyano-phenoxy)-2-fluoro-benzyl]-pyrazolo[3,4-c]pyridazin-1-ylmethyl}ester] yielded a melting point of 176 to 178 °C.
`CC(=O)n1nc(Cc2ccc(Br)c(Oc3cc(Cl)cc(C#N)c3)c2F)c2ccnnc21` [Compound I-16, 3-[3-(1-Acetyl-1H-pyrazolo[3,4-c]pyridazin-3-ylmethyl)-6-bromo-2-fluoro-phenoxy]-5-chloro-benzonitrile] showed a melting point of 195.5 to 196.9 °C.
With `COC(=O)n1nc(Cc2ccc(Br)c(Oc3cc(Cl)cc(C#N)c3)c2F)c2ccnnc21` [Compound I-6, 3-[4-Bromo-3-(3-chloro-5-cyano-phenoxy)-2-fluoro-benzyl]-pyrazolo[3,4-c]pyridazine-1-carboxylic acid methyl ester] the melting point was 164 to 165 °C.
With `N#Cc1cc(Cl)cc(Oc2c(Br)ccc(Cc3nn(COC(=O)COCC(=O)O)c4nnccc34)c2F)c1` [Compound I-10, {3-[4-Bromo-3-(3-chloro-5-cyano-phenoxy)-2-fluoro-benzyl]-pyrazolo[3,4-c]pyridazin-1-ylmethoxycarbonylmethoxy}-acetic acid] the melting point was 146 to 147 °C.
`CCOC(=O)n1nc(Cc2ccc(Br)c(Oc3cc(Cl)cc(C#N)c3)c2F)c2ccnnc21` [Compound I-11, 3-[4-Bromo-3-(3-chloro-5-cyano-phenoxy)-2-fluoro-benzyl]-pyrazolo[3,4-c]pyridazine-1-carboxylic acid ethyl ester] gave a melting point of 139 to 140 °C.
With `N#Cc1cc(Cl)cc(Oc2c(Cl)ccc(Cc3nn(COC(=O)CCC(=O)O)c4nnccc34)c2F)c1` [Compound I-5, Succinic acid mono-{3-[4-chloro-3-(3-chloro-5-cyano-phenoxy)-2-fluoro-benzyl]-pyrazolo[3,4-c]pyridazin-1-ylmethyl}ester] the melting point was 173 to 174.8 °C.
In the case of `N#Cc1cc(Cl)cc(Oc2c(Br)ccc(Cc3nn(COC(=O)CCC(=O)O)c4nnccc34)c2F)c1` (as salt: sodium) [Compound I-3, Succinic acid mono-{3-[4-bromo-3-(3-chloro-5-cyano-phenoxy)-2-fluoro-benzyl]-pyrazolo[3,4-c]pyridazin-1-ylmethyl}ester], the melting point is reported as 172.6 to 173.9 °C.
In the case of `CC(C)OC(=O)n1nc(Cc2ccc(Br)c(Oc3cc(Cl)cc(C#N)c3)c2F)c2ccnnc21` [Compound I-20, 3-[4-Bromo-3-(3-chloro-5-cyano-phenoxy)-2-fluoro-benzyl]-pyrazolo[3,4-c]pyridazine-1-carboxylic acid isopropyl ester], the melting point is reported as 166.1 to 166.9 °C.
`N#Cc1cc(C#N)cc(Oc2c(Cl)ccc(Cc3nn(COC(=O)CCC(=O)O)c4nnccc34)c2F)c1` [Compound I-12, Succinic acid mono-{3-[4-chloro-3-(3,5-dicyano-phenoxy)-2-fluoro-benzyl]-pyrazolo[3,4-c]pyridazin-1-ylmethyl}ester] gave a melting point of 166.1 to 169.9 °C.
For `N#Cc1cc(Cl)cc(Oc2c(Br)ccc(Cc3nn(C(=O)c4cccnc4)c4nnccc34)c2F)c1` [Compound I-17, 3-{6-Bromo-2-fluoro-3-[1-(pyridine-3-carbonyl)-1H-pyrazolo[3,4-c]pyridazin-3-ylmethyl]-phenoxy}-5-chloro-benzonitrile], the melting point was 187.7 to 188.5 °C.
Compound `CC(C)[C@H](N)C(=O)OCn1nc(Cc2ccc(Br)c(Oc3cc(Cl)cc(C#N)c3)c2F)c2ccnnc21.Cl` [Compound I-9, (S)-2-Amino-3-methyl-butyric acid 3-[4-bromo-3-(3-chloro-5-cyano-phenoxy)-2-fluoro-benzyl]-pyrazolo[3,4-c]pyridazin-1-ylmethyl ester] has a melting point of 155 to 156 °C.
`CC(C)C(=O)n1nc(Cc2ccc(Br)c(Oc3cc(Cl)cc(C#N)c3)c2F)c2ccnnc21` [Compound I-21, 3-[6-Bromo-2-fluoro-3-(1-isobutyryl-1H-pyrazolo[3,4-c]pyridazin-3-ylmethyl)-phenoxy]-5-chloro-benzonitrile] showed a melting point of 157.7 to 159.3 °C.
